Measurements reported in patent publication US12343326B2, “Psychoactive medicines and their use for treating psychiatric and neurological conditions and disorders” (Transcend Therapeutics, Inc., priority 2021, dated 2025).
Entries after “also recorded” stand apart in the source; their conditions may differ. Where two headings read alike, the source gives them in different places.

Experiments:
[1] = test system: rats (Sprague Dawley; Flinders Sensitive Line); settings: cited from earlier work
[2] = test system: rats with reserpine-induced pain sensitivity; test: Reserpine-induced fibromyalgia model, von Frey test; assay type: in vivo, rat; settings: 2C-B 10 and 20 mg/kg; duloxetine positive control; 60-min post-injection
Protocol: Reserpine (1 mg/kg/s.c.) is administered for 3 days to mimic chronic widespread pain and complex symptoms.
In this Example, male Sprague Dawley rats are tested in a behavioral model of FMA based on the protocol from Nakagura et al. (2009) Pain 146:26. This model uses three daily doses of reserpine (1 mg/kg, SC) or 0.5% acetic acid vehicle to reduce pain thresholds (i.e., increase pain perception) in the Von Frey Test (vFT, procedure outlined below).
Von Frey Test (vFT) procedure: Increasing pain thresholds in this test are consistent with a reduction in pain perception. Prior to the start of dosing, rats are tested for their baseline mechanical pain threshold. For von Frey measurements, animals are placed into wire bottom cubicles with opaque Plexiglas walls, allowing access to the underside of their paws. Animals are habituated to this environment for at least 30 minutes before the start of the von Frey filament application. Static allodynia is measured using Semmes-Weinstein von Frey filaments (Stoelting, Wood Dale, IL). Mechanical allodynia is tested by touching the plantar surface of the animals' left and right hind paws with von Frey filaments which deliver a calibrated amount of force. Each von Frey filament is presented perpendicularly to the plantar surface for approximately 6 seconds of constant application in either ascending or descending strength in a modified up-and-down method (Chaplan et al. (1994) J Neurosci. Meth. 53:55). Stimulation is presented at intervals of several seconds, allowing for apparent resolution of any behavioral responses to previous stimuli. A positive response is noted if the paw is sharply withdrawn. Flinching immediately upon removal of the hair is also considered a positive response. […]
VonFrey measurements: Animals were placed into wire bottom cubicles with opaque Plexiglas walls, allowing access to the underside of their paws. […] Static allodynia was measured using Semmes-Weinstein von Frey filaments (Stoelting, Wood Dale, IL). […] The average hindpaw thresholds were determined 60-min post-injection. […]

[3] = test system: Male Sprague Dawley rats; test: Forced Swim Test (FST); assay type: in vivo, rat
From the text: The Forced Swim Test (FST) is a classic, and the most used preclinical behavioral assay to screen compounds with antidepressant-like activity and has high predictive and face validity (Porsolt et al. (1977) Nature 266:730; Borsini and Meli (1988) Psychopharmacology 94:147). The premise of the FST is that when rats are placed into a cylinder filled with water, they will initially try to escape, but over time will become immobile. This increased immobility reflects behavioral despair, modeling a depressive-like state.
Forced Swim Test (FST): In the FST trial, rats were placed in a circular plexiglass container filled with water, with no means of escape. Water temperature was maintained at 22-25° C. and changed for every animal. After an acclimation period, rats were timed for inactivity (failure to struggle), activity, swim time and climbing time. Day 1 consisted of a 15 min acclimation trial, and Day 2 (24 h later) consisted of the 5 min test. A time sampling procedure was employed where animals were observed every 5 sec and scored for immobility, swimming, or climbing. Fluoxetine (10 mg/kg, IP, Sigma Aldrich) or 0.9% sterile saline vehicle (vehicle 3× group) were administered 23.5, 5, and 1 h before testing in the FST. […] The experimenter was blinded to treatment.
Forced Swim Test: In the FST trial, rats were placed in a circular plexiglass container filled with water, with no means of escape. Water temperature was maintained at 22-25° C. and changed for every animal. After an acclimation period, rats were timed for inactivity (failure to struggle), activity, swim time and climbing time. Day 1 consisted of a 15 min acclimation trial, and Day 2 (24 h later) consisted of the 5 min test. A time sampling procedure was employed where animals were observed every 5 sec and scored for immobility, swimming, or climbing. Fluoxetine (10 mg/kg, IP, Sigma Aldrich) or 0.9% sterile saline vehicle (vehicle 3× group) were administered 23.5, 5, and 1 h before testing in the FST. 2C-B (2.5, 10, or 20 mg/kg, IP, Cayman Chemical) or 0.9% saline vehicle (vehicle 1× group) were administered 30 min prior to FST testing. The experimenter was blinded to treatment.
Drug Treatment: Fluoxetine (10 mg/kg, IP, Sigma Aldrich) or 0.9% sterile saline vehicle were administered 23.5, 5, and 1 h before testing in the FST. […] Control animals received fluoxetine alone, methylone alone, or saline vehicle.
Forced Swim Test: In the FST trial, rats were placed in a circular plexiglass container filled with water, with no means of escape. Water temperature was maintained at 22-25° C. and changed for every animal. After an acclimation period, rats were timed for inactivity (failure to struggle), activity, swim time and climbing time. The experimenter and scorer were blind to treatment group. Day 1 consisted of a 15 min acclimation trial, and Day 2 (24 h later) consisted of the 5 min test. A time sampling procedure was employed where animals were observed every 5 sec and scored for immobility, swimming, or climbing.
Control animals received saline vehicle. The dosing schedule and experimental design are found in FIG. 12A.
The FST was performed and scored by an experimenter blind to treatment group according to standard protocols and based on a “modified FST” procedure (Slattery and Cryan (2012) Nat Protoc, 7:1009). Briefly, rats were placed in a circular plexiglass container (29.2 cm diameter, 49.5 cm height) filled with water to a depth of 30 cm so rats could not support themselves by touching the bottom of the tank. Water was maintained at 22-25° C. and was changed for every animal. Day 1 (Training) consisted of a 15 min acclimation trial, and Day 2 (Testing, 24 h later) consisted of the 5 min test. […]

[4] = test system: Male C57Bl/6 mice; test: Cisplatin chemotherapy-induced peripheral neuropathy (CIPN) model, von Frey test; assay type: in vivo, mouse
Protocol: Cisplatin, a platinum-based chemotherapy agent has been used to reduce pain thresholds in a model of CIPN. Effects of acute (single higher dose) or sub-chronic (7 days repeated lower dose) 2C-B on pain thresholds were investigated in cisplatin-treated animals compared with vehicle or cisplatin-treated controls.
Methods: Male C57Bl/6 mice aged 12-16 weeks were used. Cisplatin (2.5 mg/kg) or vehicle was administered on days 1-5 and 11-15.
Vehicle, sub-chronic 2C-B (5 mg/kg once daily days 17-23) or acute 2C-B (20 mg/kg once on day 17) was then administered IP (N=16-18/group). VonFrey testing took place on day 17 (30 min post-dose) and days 21 and 24 (pre-dose) to monitor the effects of 2C-B in cisplatin treated animals, compared with animals receiving cisplatin+vehicle or vehicle+vehicle.
For von Frey measurements, animals were placed into wire bottom cubicles with opaque Plexiglas walls, allowing access to the underside of their paws. Animals were habituated to this environment for at least 30 minutes before the start of the von Frey filament application. Static allodynia was measured using Semmes-Weinstein von Frey filaments (Stoelting, Wood Dale, IL). Mechanical allodynia was tested by touching the plantar surface of the animals' right and left hind paws with von Frey filaments which deliver a calibrated amount of force (0.07, 0.16, 0.4, 0.6. 1.0, 2.0, 4.0, 6.0 g). […]

[5] = test system: experienced drug users; settings: cited from earlier work
[6] = test system: mice; test: Mouse fear extinction paradigm (PTSD model); assay type: in vivo; settings: MBDB 5 mg/kg IP; day 2
From the text: Effective PTSD treatments facilitate the disassociation between a traumatic memory and the patient's fear response, making cues for the traumatic memory evoke less of a fear response. This is modeled in the mouse fear extinction paradigm (see FIG. 9A) which takes place over 3 days. On day 1 (fear conditioning), mice are trained to acquire a “traumatic memory,” namely associating the conditioned stimulus (CS, tone) to the unconditioned stimulus (US, foot shock). On day 2 (extinction training), they are trained to forget the traumatic memory association by presenting the CS 6 times (with no US) in a novel environment. On day 3 (extinction recall), the mice are “asked” if that tone (CS) still elicits a fearful response, as measured by the time spent freezing when the tone is presented. Less time freezing means better extinction recall. Drugs that improve extinction recall reduce freezing time on day 3, and, therefore, show potential as a PTSD treatment.

[7] = test system: serotonergic terminals in the cortex and hippocampus; settings: 25 mg/kg IP every 12 hours for 4 days; 2 weeks post-treatment; cited from earlier work

For `CN(C)CCc1c[nH]c2cccc(OP(=O)(O)O)c12` [psilocybin], the “reduction in immobility (FST)” value ([1]; Hibicke et al. (2020)) is given as 67%.

In the case of `CCN(CC)C(=O)[C@@H]1C=C2c3cccc4[nH]cc(c34)C[C@H]2N(C)C1` [LSD, lysergic acid-N,N-diethylamide], the “reduction in immobility (FST)” value ([1]; Hibicke et al. (2020)) is given as 38%.

In the case of `CNCC[C@H](Oc1cccc2ccccc12)c1cccs1` [duloxetine, reference compound], the “animals with complete (maximal) reversal of reserpine-induced pain sensitivity” value [2] is reported as 44%.

In the case of `COc1cc(CCN)c(OC)cc1Br` [2C-B, 4-Bromo-2,5-dimethoxyphenethylamine], the “climbing (FST)” value ([3]; 2C-B high-dose group only) is reported as “significantly decreased”, the “swimming (FST)” value ([3]; single dose of 2C-B 30 minutes before testing) is reported as “significant increase in swimming” and the “animals with complete (maximal) reversal of reserpine-induced pain sensitivity” value [2] is reported as 100%. The “effect of repeated doses in CIPN model” value ([4]; repeated doses of 5 mg/kg, once daily days 17-23) was “sustained beneficial effect”, the “pain thresholds (von Frey) in cisplatin-treated animals” value ([4]; within 30 min of a single dose, 5 or 20 mg/kg IP, day 17) was “significantly increased” and the serious adverse effects ([5]; self-administered, dose 10 to 20 mg) was “no serious adverse effects”.

For `CNC1(c2ccccc2Cl)CCCCC1=O` (stereo not drawn) [ketamine], the “reduction in immobility (FST)” value ([1]; Hibicke et al. (2020)) is given as 30%, the “reduction in immobility (FST)” value ([1]; Tizabi et al. (2012)) is given as 60% and the “reduction in immobility (FST)” value ([1]; Yang et al. (2013)) is given as 25-55%.

With `CCC(Cc1ccc2c(c1)OCO2)NC` (racemic) [MBDB, N-methyl-1-(1,3-benzodioxol-5-yl)-2-aminobutane] the “immobility (FST)” value ([3]; MBDB 5-30 mg/kg IP, 30 min before testing) was “significantly reduced immobility”, the “extinction acquisition (freezing, first trial of extinction training)” value [6] was “improved extinction acquisition; also recorded: significantly reduced” and the locomotor activity [6] was “small, but significant increase in locomotor activity”. For the same compound, the “serotonergic terminals in the cortex and hippocampus destroyed” value [7] was 55-60% and the serious adverse effects ([5]; self-administered under supervision, dose 100 to 300 mg) was “no serious adverse effects”.

For `CNCCC(Oc1ccc(C(F)(F)F)cc1)c1ccccc1` (stereo not drawn) [fluoxetine, reference compound], the “swimming behavior (FST)” value ([3]; Example 8) was “significantly increased swimming behavior”.
